The record followed here is patent publication US12723235B2, “Method for expanding hepatocyte in vitro and application” (Center for Excellence in Molecular Cell Science, Chinese …, priority 2018, dated 2026).

One data set has as its system human hepatocytes. As to the kind of experiment: Expansion of human hepatocytes in HM medium with, without or with replaced Wnt signaling pathway agonist (6 days). Conditions: 50 ng/ml Wnt3a purified protein or CHIR 0.1 μM. It counts as cell-based. The text has this:
A. Cell photographs of human hepatocytes cultured for 6 days in: HM medium containing Wnt3a conditioned medium, HM medium without Wnt3a conditioned medium, HM medium containing Wnt3a purified protein instead of Wnt3a conditioned medium, and HM medium containing CHIR instead of Wnt3a conditioned medium.
B. Fold of expansion of human hepatocytes cultured for 6 days in: HM medium containing Wnt3a conditioned medium, HM medium without Wnt3a conditioned medium, HM medium containing Wnt3a purified protein instead of Wnt3a conditioned medium, and HM medium containing CHIR instead of Wnt3a conditioned medium.
Cryopreserved human liver cells were purchased from Celsis In Vitro Technologies (Baltimore, MD, U.S.). The cryopreserved human hepatocytes were resuscitated in DMEM medium containing 10% serum, and seeded in a collagen-I-coated plate at 2*10^4 cells/cm^2. The culture plate was incubated at 37° C. in a 5% CO2, 5% O2 incubator. The medium was changed to the hepatocyte medium one day after seeding and every 3 days thereafter. After 6 days of culture, the fully grown cells were trypsinized and seeded in a collagen-I-coated plate at 3*10^4 cells/cm^2. The culture plate was incubated at 37° C. in a 5% CO2 and 5% O2 incubator.
The HM medium contains a variety of growth factors and small molecule compounds.

In data set [1] the test system is ProliHHs.
Description: (§1) The fully grown proliferating human hepatocytes are trypsinized and re-suspended in the hepatocyte medium, and seeded in a non-attached 24-well plate (Elplasia, Japan) at 5*10^5 cells/well. One day later, the medium was replaced with the hepatocyte induction medium, and the cells will slowly aggregate into cell spheres. The medium was changed every 2 days, and the induced cells were collected 10 days after the induction.
(§2) • 1) Extract cellular RNA by Trizol (Invitrogen) or RNeasy FFPE Kit (Qiagen). • 2) Obtain cDNA by M-MLV reverse transcriptase (Promega) kit, using 1 μg Trizol-extracted RNA, or 1 μg or all (according to the particular amount) of the RNA extracted by RNeasy FFPE Kit. • 3) Perform real-time quantitative PCR using SYBR Premix Ex Taq kit (TaKaRa), and detect expression of genes with ABI StepOnePlus real-time PCR system (Applied Biosystems). All Q-PCR data were performed with at least 2 repeats.
(§3) For detecting urea secretion ability of the cultured cells, supernatants of cell culture were collected after 24-hour culture and analyzed by urea assay kit (Abnova) according to its protocol.
(§4) For measurement of CYP2B6 metabolism activity of the proliferating human hepatocytes, cells subjected 10 days of hepatic induction and freshly resuscitated human hepatocytes were incubated respectively in a medium containing 100 um bupropion. Supernatants of cell culture were present to RILD Liver Company to detect the production of CYP2B6 metabolites using mass spectrometry. Standard curves were drawn using commercially purchased standards.
In data set [2] the test system is ProliHHs. As to the kind of experiment: In vitro hepatic maturation induction of ProliHHs (3D culture, 10 days; morphology, gene expression, CYP2B6 and urea metabolism). Conditions: components added to HM to give HIM.
Description: as §1, §2, §3, §4

Where two headings read alike, the source gives them in different places.

For `Cc1c[nH]c(-c2cnc(NCCNc3ccc(C#N)cn3)nc2-c2ccc(Cl)cc2Cl)n1` [CHIR, CHIR99021], in the data set on human hepatocytes, the “cell morphology and expansion fold compared with Wnt3a conditioned medium” value was “similar”; the “expansion of human hepatocytes when replacing Wnt3a conditioned medium in HM medium” value is reported as “could be expanded”.
Take `C[C@@H]1C[C@H]2[C@@H]3CCC4=CC(=O)C=C[C@]4(C)[C@@]3(F)[C@@H](O)C[C@]2(C)[C@@]1(O)C(=O)CO` [DEX, Dexamethasone]: the “role in hepatic maturation medium (metabolic maturation, inhibition of progenitor gene expression)” value with ProliHHs [1] is recorded as “key factors”.
Still for that read-out and setting: the same measure for Oncostatin M [OSM]: “key factors”.
As to `C=C[C@@]1(C)CC(=O)[C@]2(O)[C@@]3(C)[C@@H](O)CCC(C)(C)[C@@H]3[C@H](O)[C@H](OC(C)=O)[C@@]2(C)O1` [Forskolin], in the data set with ProliHHs [2], the “role in hepatic maturation medium (metabolic maturation, inhibition of progenitor gene expression)” value is “key factors”.

B1: Wnt3a purified protein: Purified Wnt3a protein, Wnt signaling pathway agonist (stemimmune LLC) (protein, UniProt P56704 19-352, looked up)
Protein Wnt-3a: SYPIWWSLAVGPQYSSLGSQPILCASIPGLVPKQLRFCRNYVEIMPSVAEGIKIGIQECQHQFRGRRWNCTTVHDSLAIFGPVLDKATRESAFVHAIASAGVAFAVTRSCAEGTAAICGCSSRHQGSPGKGWKWGGCSEDIEFGGMVSREFADARENRPDARSAMNRHNNEAGRQAIASHMHLKCKCHGLSGSCEVKTCWWSQPDFRAIGDFLKDKYDSASEMVVEKHRESRGWVETLRPRYTYFKVPTERDLVYYEASPNFCEPNPETGSFGTRDRTCNVSSHGIDGCDLLCCGRGHNARAERRREKCRCVFHWCCYVSCQECTRVYDVHTCK
For the molecule B1, in the data set on human hepatocytes, the “cell morphology and expansion fold compared with Wnt3a conditioned medium” value is listed as “similar”; the “expansion of human hepatocytes when replacing Wnt3a conditioned medium in HM medium” value was “could be expanded”.
